Source: patent publication US10028938B2, “Antiviral agents and uses thereof” (Griffith University, priority 2014, dated 2018)
Like-named read-outs stand apart in the source and are kept apart here.

Experiments:
[1] = target: hPIV-1 NI (Human parainfluenza 1 virus, UniProt P16071); test: biochemical
Procedure: IC50 values for a number of compounds of the first aspect were determined by standard assay methods previously described in Guillon, P et al, Nature Communications (2014).

[2] = target: hPIV-3 HN (Human parainfluenza 3 virus, UniProt P08492); assay type: biochemical, hPIV-3 (strain C-243)
[3] = target: T1, hPIV-3 HN (UniProt P08492); assay type: biochemical, hPIV-3 (strain C-243); design: rows headed: HI Mean IC50; hPIV-3 HN; 3 independent experiments; fold improvement in HI assay; other: versus 6; hPIV-3 HN HI IC50; other: text; other: text, unit given as M; details: read-out: hPIV-3 HN HI IC50
T1 sequence (P08492 1-572): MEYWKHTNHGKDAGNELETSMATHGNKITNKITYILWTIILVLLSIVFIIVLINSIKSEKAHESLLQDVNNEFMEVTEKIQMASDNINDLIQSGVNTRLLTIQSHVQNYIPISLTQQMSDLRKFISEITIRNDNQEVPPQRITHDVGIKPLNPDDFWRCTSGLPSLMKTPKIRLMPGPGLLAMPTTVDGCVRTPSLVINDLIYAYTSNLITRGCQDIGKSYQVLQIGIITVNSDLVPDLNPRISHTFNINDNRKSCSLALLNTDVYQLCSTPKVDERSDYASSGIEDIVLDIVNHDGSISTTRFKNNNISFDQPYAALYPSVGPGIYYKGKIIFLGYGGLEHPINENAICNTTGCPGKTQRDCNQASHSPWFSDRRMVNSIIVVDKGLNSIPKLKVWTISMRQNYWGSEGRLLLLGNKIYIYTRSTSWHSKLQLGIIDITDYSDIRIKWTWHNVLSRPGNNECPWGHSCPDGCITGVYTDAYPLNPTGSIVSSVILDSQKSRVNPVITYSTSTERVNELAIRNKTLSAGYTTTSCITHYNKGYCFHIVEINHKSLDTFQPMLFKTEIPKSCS

[4] = Table 5, read-out: hPIV-3 NI (IC50 values)

hPIV-1 NI, sequence (P16071 whole entry): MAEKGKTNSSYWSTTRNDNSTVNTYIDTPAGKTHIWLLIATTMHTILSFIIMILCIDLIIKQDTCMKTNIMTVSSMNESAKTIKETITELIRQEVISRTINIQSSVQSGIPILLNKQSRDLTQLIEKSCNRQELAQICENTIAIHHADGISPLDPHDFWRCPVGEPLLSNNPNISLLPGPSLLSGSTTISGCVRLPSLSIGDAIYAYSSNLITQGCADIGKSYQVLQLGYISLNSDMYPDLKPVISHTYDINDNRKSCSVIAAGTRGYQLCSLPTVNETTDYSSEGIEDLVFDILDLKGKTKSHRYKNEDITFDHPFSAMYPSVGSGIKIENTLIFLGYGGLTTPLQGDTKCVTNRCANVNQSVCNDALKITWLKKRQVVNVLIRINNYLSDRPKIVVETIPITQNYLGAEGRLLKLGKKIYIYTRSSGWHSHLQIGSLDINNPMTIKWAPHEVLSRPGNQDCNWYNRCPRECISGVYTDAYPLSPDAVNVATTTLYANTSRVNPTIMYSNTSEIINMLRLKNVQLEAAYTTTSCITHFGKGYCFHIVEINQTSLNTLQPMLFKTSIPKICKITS

Structure (SMILES)	IC50 [1]	IC50 [2, 4]	IC50 ([2]; text b135, read-out: IC50 values for hPIV-3 HN)	IC50 [3]
COc1ccccc1-c1cn([C@H]2C=C(C(=O)O)O[C@@H]([C@H](O)[C@H](O)CO)[C@@H]2NC(=O)C(C)C)nn1 [IE889-34, Sodium 2,6-anhydro-3,4,5-trideoxy-5-isobutyramido-4-(4-(2-methoxyphenyl)-[1,2,3,]triazol-1-yl)-D-glycero-D-galacto-non-2-enonate]	30.3 µM	3.23 µM	–	–
CC(=O)N[C@H]1[C@H]([C@H](O)[C@H](O)CO)OC(C(=O)O)=C[C@@H]1n1cnnn1 [IE832-98, Sodium 5-acetamido-2,6-anhydro-3,4,5-trideoxy-4-(1H-tetrazol-1-yl)-D-glycero-D-galacto-non-2-enonate]	7.44 µM	27.4 µM	–	–
CC(=O)N[C@H]1[C@H]([C@H](O)[C@H](O)CO)OC(C(=O)O)=C[C@@H]1n1cc2ccccc2c1C#N [IE889-80, Sodium 5-acetamido-2,6-anhydro-4-(1-cyano-2H-isoindol-2-yl)-3,4,5-trideoxy-D-glycero-D-galacto-non-2-enonate]	16.9 µM	2.68 µM	–	–
CCCc1cn([C@H]2C=C(C(=O)O)O[C@@H]([C@H](O)[C@H](O)CO)[C@@H]2NC(C)=O)nn1 [IE832-26, Sodium 5-acetamido-2,6-anhydro-3,4,5-trideoxy-4-(4-propyl-[1,2,3,]triazol-1-yl)-D-glycero-D-galacto-non-2-enonate]	95.5 µM	67.7 µM	–	–
COCc1cnnn1[C@H]1C=C(C(=O)O)O[C@@H]([C@H](O)C(O)CO)[C@@H]1NC(C)=O (stereo partly drawn) [IE1172-87, Sodium 5-acetamido-2,6-anhydro-3,4,5-trideoxy-4-(5-methoxymethyl-[1,2,3,]triazol-1-yl)-D-glycero-D-galacto-non-2-enonate]	92.8 µM	77.4 µM	–	–
COc1ccc(-c2cn([C@H]3C=C(C(=O)O)O[C@@H]([C@H](O)[C@H](O)CO)[C@@H]3NC(C)=O)nn2)cc1 [IE832-31, Sodium 5-acetamido-2,6-anhydro-3,4,5-trideoxy-4-(4-(4-methoxyphenyl)-[1,2,3,]triazol-1-yl)-D-glycero-D-galacto-non-2-enonate]	303 µM	22.9 µM	–	–
CC(=O)N[C@H]1[C@H]([C@H](O)[C@H](O)CO)OC(C(=O)O)=C[C@@H]1n1cc(-c2ccc(CO)cc2)nn1 [IE832-12, Sodium 5-acetamido-2,6-anhydro-3,4,5-trideoxy-4-(4-(4-hydroxymethylphenyl)-[1,2,3,]triazol-1-yl)-D-glycero-D-galacto-non-2-enonate]	215 µM	51.9 µM	–	–
CC(=O)N[C@H]1[C@H]([C@H](O)C(O)CO)OC(C(=O)O)=C[C@@H]1n1cc(-c2ccccc2Br)nn1 (stereo partly drawn) [IE1257-84, Sodium 5-acetamido-2,6-anhydro-4-(4-(2-bromophenyl)-[1,2,3,]triazol-1-yl)-3,4,5-trideoxy-D-glycero-D-galacto-non-2-enonate]	24.9 µM	2.19 µM	–	–
CC(=O)N[C@H]1[C@H]([C@H](O)[C@H](O)CO)OC(C(=O)O)=C[C@@H]1n1cc(CC(C)C)nn1 [IE832-8, Sodium 5-acetamido-2,6-anhydro-3,4,5-trideoxy-4-(4-isobutyl-[1,2,3,]triazol-1-yl)-D-glycero-D-galacto-non-2-enonate]	301 µM	54.4 µM	–	–
CC(=O)N[C@H]1[C@H]([C@H](O)C(O)CO)OC(C(=O)O)=C[C@@H]1n1nncc1-c1ccccc1 (stereo partly drawn) [IE1172-45, Sodium 5-acetamido-2,6-anhydro-3,4,5-trideoxy-4-(5-phenyl-[1,2,3,]triazol-1-yl)-D-glycero-D-galacto-non-2-enonate]	> 1000 µM	315 µM	–	–
CC(=O)N[C@H]1[C@H]([C@H](O)C(O)CO)OC(C(=O)O)=C[C@@H]1n1cc(-c2ccccc2Cl)nn1 (stereo partly drawn) [IE1172-78, Sodium 5-acetamido-2,6-anhydro-4-(4-(2-chlorophenyl)-[1,2,3,]triazol-1-yl)-3,4,5-trideoxy-D-glycero-D-galacto-non-2-enonate]	75.2 µM	2.47 µM	–	–
CC(=O)N[C@H]1[C@H]([C@H](O)C(O)CO)OC(C(=O)O)=C[C@@H]1n1nnc(-c2ccccc2)c1-c1ccccc1 (stereo partly drawn) [IE1172-102, Sodium 5-acetamido-2,6-anhydro-3,4,5-trideoxy-4-(4,5-diphenyl-[1,2,3,]triazol-1-yl)-D-glycero-D-galacto-non-2-enonate]	793 µM	> 1000 µM	–	–
CC(=O)N[C@H]1[C@H]([C@H](O)C(O)CO)OC(C(=O)O)=C[C@@H]1n1cc(-c2ccccc2C(F)(F)F)nn1 (stereo partly drawn) [IE1172-83, Sodium 5-acetamido-2,6-anhydro-3,4,5-trideoxy-4-(4-(2-(trifluoromethyl)phenyl)-[1,2,3,]triazol-1-yl)-D-glycero-D-galacto-non-2-enonate]	73.6 µM	5.61 µM	–	–
CC(=O)N[C@H]1[C@H]([C@H](O)[C@H](O)CO)OC(C(=O)O)=C[C@@H]1n1cc(-c2cccnc2)nn1 [IE832-27, Sodium 5-acetamido-2,6-anhydro-3,4,5-trideoxy-4-(4-(pyridin-3-yl)-[1,2,3,]triazol-1-yl)-D-glycero-D-galacto-non-2-enonate]	302 µM	106 µM	–	–
CC(C)C(=O)N[C@H]1[C@H]([C@H](O)[C@H](O)CO)OC(C(=O)O)=C[C@@H]1n1cc2ccccc2c1C#N [IE889-99, Sodium 2,6-anhydro-4-(1-cyano-2H-isoindol-2-yl)-3,4,5-trideoxy-5-isobutyramido-D-glycero-D-galacto-non-2-enonate]	6.22 µM	0.599 µM	–	–
N#Cc1c2ccccc2cn1[C@H]1C=C(C(=O)O)O[C@@H]([C@H](O)[C@H](O)CO)[C@@H]1NC(=O)C(F)(F)F [IE927-99, Sodium 2,6-anhydro-4-(1-cyano-2H-isoindol-2-yl)-3,4,5-trideoxy-5-(2,2,2-trifluoroacetamido)-D-glycero-D-galacto-non-2-enonate]	3.09 µM	0.268 µM	0.27 µM	–
CC(C)Cc1cn([C@H]2C=C(C(=O)O)O[C@@H]([C@H](O)[C@H](O)CO)[C@@H]2NC(=O)C(C)C)nn1 [IE927-67, Sodium 2,6-anhydro-3,4,5-trideoxy-4-(4-isobutyl-[1,2,3,]triazol-1-yl)-5-isobutyramido-D-glycero-D-galacto-non-2-enonate]	47.7 µM	114 µM	–	–
CC(=O)N[C@H]1[C@H]([C@H](O)C(O)CO)OC(C(=O)O)=C[C@@H]1n1cc(-c2ccccc2C)nn1 (stereo partly drawn) [IE1172-82, Sodium 5-acetamido-2,6-anhydro-3,4,5-trideoxy-4-(4-(2-methylphenyl)-[1,2,3,]triazol-1-yl)-D-glycero-D-galacto-non-2-enonate]	57.2 µM	3.95 µM	–	–
COc1ccccc1-c1cn([C@H]2C=C(C(=O)O)O[C@@H]([C@H](O)[C@H](O)CO)[C@@H]2NC(C)=O)nn1 [IE832-37, Sodium 5-acetamido-2,6-anhydro-3,4,5-trideoxy-4-(4-(2-methoxyphenyl)-[1,2,3,]triazol-1-yl)-D-glycero-D-galacto-non-2-enonate]	201 µM	2.4 µM	–	–
CC(C)C(=O)N[C@H]1[C@H]([C@H](O)[C@H](O)CO)OC(C(=O)O)=C[C@@H]1n1cnnn1 [IE889-42, Sodium 2,6-anhydro-3,4,5-trideoxy-5-isobutyramido-4-(H-tetrazol-1-yl)-D-glycero-D-galacto-non-2-enonate]	0.159 µM	5.11 µM	–	–
COc1cccc(-c2cn([C@H]3C=C(C(=O)O)O[C@@H]([C@H](O)[C@H](O)CO)[C@@H]3NC(C)=O)nn2)c1 [IE832-20, Sodium 5-acetamido-2,6-anhydro-3,4,5-trideoxy-4-(4-(3-methoxyphenyl)-[1,2,3,]triazol-1-yl)-D-glycero-D-galacto-non-2-enonate]	193 µM	6.28 µM	–	–
COCc1cn(C2C(F)[C@](F)(C(=O)O)OC([C@H](O)[C@H](O)CO)[C@@H]2NC(=O)C(C)C)nn1 (stereo partly drawn) [IE1257-24, 3,4,5-Trideoxy-3-fluoro-5-isobutyramido-4-(4-methoxymethyl-[1,2,3,]triazol-1-yl)-D-erythro-β-L-gluco-non-2-ulopyranosonic fluoride]	0.36 µM	8.49 µM	–	–
CC(=O)NC1C(O)C=C(C(=O)O)OC1C(O)C(O)CO (stereo not shown) [Compound 2, Neu5Ac2en, reference compound]	–	–	–	1440 µM
